# From patent publication US7732602B2, “Herbicide composition” (Sumitomo Chemical Company, Limited, priority 2001, dated 2010)
# Where a name gives a salt, the structure may show the parent alone.
# Experiments:
# Assay type in all cases: in vivo
# soybean = experiment: Phytotoxicity to soybean sown immediately after treatment (Test Example 1); set-up: key: “no” when almost no phytotoxicity was observed; “low” when a low level phytotoxicity was observed; “medium” when a medium level phytotoxicity was observed; “high” when a high level phytotoxicity was observed; conditions: 14 days after treatment
# Description: (§1) Evaluation of phytotoxicity against a crop was shown by “no” when almost no phytotoxicity was observed, “low” when a low level phytotoxicity was observed, “medium” when a medium level phytotoxicity was observed and “high” when a high level phytotoxicity was observed.
# (§2) A plastic pot of 11 cm in diameter and 8 cm in depth was filled with field soil. A tuber of yellow nutsedge was buried and grown in a greenhouse for 28 days.
# (§3) An emulsion of Compound A-1 was prepared by sufficiently mixing 5 parts of Compound A-1, 6 parts of Sorpol 3005X (surfactant, produced by Toho Chemical) and 89 parts of xylene.
# (§4) Each of • (a) single use of an emulsion of Compound A-1, • (b) single use of a solution of Glyphosate isopropylamine salt (commercial name: Roundup, produced by Nippon Monsanto, containing 41% of Glyphosate isopropylamine salt), • (c) single use of a solution of Gltfosinate-Ammonium (commercial name: Basta, produced by Hoechst Schering AgrEvo GmbH, containing 18.5% of Glufosinate-Ammonium), • (d) a mixed composition of an emulsion of Compound A-1 and a solution of Glyphosate isopropylamine salt, and • (e) a mixed composition of an emulsion of Compound A-1 and a solution of Glufosinate-Ammonium were diluted with water containing 1% Agri-dex (produced by Helena). Respective dilutions were uniformly sprayed from upper side onto foliages of yellow nutsedge grown as described above with a small sprayer such that the amounts of the active ingredients were the amounts shown in Table 4. Immediately after the treatment with the test compounds, seeds of corn, soybean and cotton were sown.
# (§5) After the treatment, they were raised in a greenhouse for 5 days and the effect against weeds was evaluated. In addition, after 14 days of the treatment, the phytotoxicity to corn, soybean and cotton was evaluated.
# corn = experiment: Phytotoxicity to corn sown immediately after treatment (Test Example 1); set-up: key: “no” when almost no phytotoxicity was observed; “low” when a low level phytotoxicity was observed; “medium” when a medium level phytotoxicity was observed; “high” when a high level phytotoxicity was observed; conditions: 14 days after treatment
# Description: as §1, §2, §3, §4, §5
# cotton = experiment: Phytotoxicity to cotton sown immediately after treatment (Test Example 1); set-up: key: “no” when almost no phytotoxicity was observed; “low” when a low level phytotoxicity was observed; “medium” when a medium level phytotoxicity was observed; “high” when a high level phytotoxicity was observed; conditions: 14 days after treatment
# Description: as §1, §2, §3, §4, §5
# yellow nutsedge = experiment: Herbicide effect, foliar spray on yellow nutsedge grown in pots (Test Example 1); set-up: key: a level was taken “0” when completely or almost no difference was observed between the growth behavior of a test weed at the time of observation and that of untreated weed; a level was taken “10” when a test weed completely died or the growth of that was completely inhibited; conditions: 5 days after treatment, levels 0-10
# Description: as §1, §2, §3, §4, §5
Compound,Phytotoxicity Be (soybean; 200 g/ha),Phytotoxicity Be (soybean; 1000 g/ha),Phytotoxicity Cr (corn; 200 g/ha),Phytotoxicity Cr (corn; 1000 g/ha),Phytotoxicity Ct (cotton; 200 g/ha),Phytotoxicity Ct (cotton; 1000 g/ha),Herbicide Effect (yellow nutsedge; 200 g/ha),Herbicide Effect (yellow nutsedge; 1000 g/ha),Phytotoxicity Be (soybean; 100 g/ha),Phytotoxicity Be (soybean; 500 g/ha),Phytotoxicity Cr (corn; 100 g/ha),Phytotoxicity Cr (corn; 500 g/ha),Phytotoxicity Ct (cotton; 100 g/ha),Phytotoxicity Ct (cotton; 500 g/ha),Herbicide Effect (yellow nutsedge; 100 g/ha),Herbicide Effect (yellow nutsedge; 500 g/ha)
"O=C(O)CNCP(=O)(O)O [Glyphosate Isopropylamine Salt, N-(phosphonomethyl)glycine]",no,no,no,no,no,no,0,0,–,–,–,–,–,–,–,–
"CP(=O)(O)CCC(N)C(=O)O.N (racemic) [Glufosinate-Ammonium, ammonium DL-homoalanin-4-yl(methyl)phosphinate]",–,–,–,–,–,–,–,–,no,no,no,no,no,no,0,2
